Converted amounts (≈) assume the structure as drawn.
Assays:
RAW264.7 = experiment: Antiinflammatory activity in mouse RAW264.7 cells assessed as decrease in LPS-induced IL-6 expression at 40 uM preincubated for 2 hrs followed by LPS-stimulation for 22 hrs by ELISA analysis relative to control; assay type: functional; settings: time 24 hrs
Vibrio anguillarum = experiment: Antibacterial activity against Vibrio anguillarum assessed as bacterial growth inhibition incubated for 24 hrs by absorbance based analysis; assay type: functional
Vibrio parahaemolyticus = experiment: Antibacterial activity against Vibrio parahaemolyticus assessed as bacterial growth inhibition incubated for 24 hrs by absorbance based analysis; assay type: functional
Vibrio alginolyticus = experiment: Antibacterial activity against Vibrio alginolyticus assessed as bacterial growth inhibition incubated for 24 hrs by absorbance based analysis; assay type: functional
MCF7 [1] = experiment: Cytotoxicity against human MCF7 cells assessed as cell growth inhibition measured after 96 hrs by MTT assay; assay type: functional, cell-based; settings: MCF7, 96 h
[2] = Toxicity in brine shrimp assessed as induction of lethality; settings: artemia salina; read-out: LD50 (the source's name)
HeLa [3] = experiment: Cytotoxicity against human HeLa cells assessed as cell growth inhibition measured after 48 hrs by MTT assay; assay type: functional, cell-based
SGC-7901 = experiment: Cytotoxicity against human SGC-7901 cells assessed as cell growth inhibition measured after 48 hrs by MTT assay; assay type: functional, cell-based; settings: SGC-7901, 48 h
[4] = tested on: Human immunodeficiency virus 1; experiment: Antiviral activity against HIV1 VSV-G pseudotyped virus infected in human SUP-T1 cells infected using supernatant of virus-producing 293T cells incubated for 48 hrs by firefly luciferase assay; assay type: functional, organism-based; settings: Human immunodeficiency virus 1, SUP-T1, 48 h
Suid alphaherpesvirus 1 = experiment: Antiviral activity against pseudorabies virus assessed as inhibition of viral growth; assay type: functional, organism-based
SF-268 = experiment: Antiproliferative activity against human SF-268 cells assessed as cell growth inhibition; assay type: functional, cell-based
MCF7 [5] = experiment: Antiproliferative activity against human MCF7 cells assessed as cell growth inhibition; assay type: functional, cell-based
HepG2 = experiment: Antiproliferative activity against human HepG2 cells assessed as cell growth inhibition; assay type: functional, cell-based
A549 = experiment: Antiproliferative activity against human A549 cells assessed as cell growth inhibition; assay type: functional, cell-based
Sclerotinia sclerotiorum = experiment: Antifungal activity against Sclerotinia sclerotiorum assessed as fungal growth inhibition by modified broth dilution; assay type: functional
Bipolaris maydis = experiment: Antifungal activity against Bipolaris maydis assessed as fungal growth inhibition by modified broth dilution; assay type: functional
Verticillium dahliae = experiment: Antifungal activity against Verticillium dahliae assessed as fungal growth inhibition by modified broth dilution; assay type: functional
Phytophthora nicotianae = experiment: Antifungal activity against Phytophthora parasitica assessed as fungal growth inhibition by modified broth dilution; assay type: functional
Fusarium graminearum [6] = experiment: Antifungal activity against Fusarium graminearum assessed as fungal growth inhibition by modified broth dilution; assay type: functional
Botrytis cinerea = experiment: Antifungal activity against Botrytis cinerea assessed as fungal growth inhibition by modified broth dilution; assay type: functional
Colletotrichum acutatum = experiment: Antifungal activity against Colletotrichum acutatum assessed as fungal growth inhibition by modified broth dilution; assay type: functional
Hepatitis C virus = experiment: Antiviral activity against Hepatitis C virus infected in human Huh7.5 cells assessed as inhibition of viral replication; assay type: functional, organism-based, Hepacivirus hominis
SW480 = experiment: Cytotoxicity against human SW480 cells assessed as cell growth inhibition measured after 48 hrs by CCK-8 assay; assay type: functional, cell-based; settings: SW480, 48 h
HeLa [7] = experiment: Cytotoxicity against human HeLa cells assessed as cell growth inhibition measured after 48 hrs by CCK-8 assay; assay type: functional, cell-based
Fusarium graminearum [8] = experiment: Antifungal activity Fusarium graminearum assessed as inhibition of fungal growth by microbroth dilution method; assay type: functional
Salmonella typhi = experiment: Antibacterial activity against Salmonella typhi assessed as reduction in microbial growth by modified broth dilution test; assay type: functional, Salmonella enterica subsp. enterica serovar Typhi; settings: Salmonella enterica
KB = experiment: Cytotoxicity against human KB cells assessed as cell growth inhibition by colorimetric method; assay type: functional, cell-based
BC1 cell line = experiment: Cytotoxicity against human BC1 cells assessed as cell growth inhibition by colorimetric method; assay type: functional, cell-based
NCI-H187 = experiment: Cytotoxicity against human NCI-H187 cells assessed as cell growth inhibition by colorimetric method; assay type: functional, cell-based
Candida albicans = experiment: Antifungal activity against Candida albicans assessed as fungal growth inhibition incubated for 24 hrs by absorbance based analysis; assay type: functional

Question: With `Cc1oc(=O)c2c(c1C)O[C@@]1(C)[C@@H]([C@@H](C)[C@]3(O)CC(=O)C(C)(C)C(=O)[C@@]3(O)[C@H]1O)[C@H]2O` as the molecule, how does the inhibition at 40 µM (RAW264.7) read?
Answer: Its inhibition at 40 µM is 69%.

Question: For `CC(C)(O)[C@H](O)CC[C@]1(C)[C@@H](O)CC[C@@]2(C)[C@H]1CC[C@H]1Cc3c([nH]c4ccccc34)[C@@]12C`, which MIC (Vibrio anguillarum) is on record?
Answer: The MIC was 3.1 µM (≈ 1.36 µg/mL).

Question: And the MIC (Vibrio parahaemolyticus)?
Answer: Its MIC is 6.3 µM (≈ 2.77 µg/mL).

Question: And the MIC (Vibrio alginolyticus)?
Answer: Its MIC is 3.1 µM (≈ 1.36 µg/mL).

Question: For `CC(C)=CC[C@H]1C(=O)C2=C(CO[C@@H]2CCO)[C@@H](O)[C@H]1O`, which IC50 (MCF7 [1]) is on record?
Answer: Its IC50 is 4.2 µM.

Question: For `C=C(C)[C@H]1O[C@H]2CC[C@@]3(C)[C@@](O)(CC[C@@]4(O)[C@@H]5OC(C)(C)[C@H]6C[C@@H]7C(=C)Cc8ccc9[nH]c(c5c9c8[C@@]76O)[C@]34C)[C@]23O[C@@H]3[C@H]1O`, which LC50 [2] is on record?
Answer: Its LC50 is 4.6 µM.

Question: Which results are given for `COc1ccc(O)c2c1[C@@H]1C=C(CC/C=C(/C)C2)C(=O)O1`?
Answer: IC50 (HeLa [3]): 23.5 µM; IC50 (SGC-7901): 14.5 µM

Question: For `C/C=C/C=C/C1=C(CO)[C@@H](O)[C@@H](O)[C@@H](CC=C(C)C)C1=O`, which IC50 [4] is on record?
Answer: The IC50 was 18 µM.

Question: With `C[C@@H]1Cc2c3c(cc(O)c2C(=O)O1)O[C@]1(C)CCC[C@](C)([C@H]2C[C@@H](O)C2(C)C)[C@H]1C3` as the molecule, how does the EC50 (Suid alphaherpesvirus 1) read?
Answer: Its EC50 is 3.35 µM.

Question: For `COC(=O)/C=C1\O[C@@]2(C)C/C=C/C(C)(C)C[C@@H]3Cc4c(C)cc(=O)c(O)cc4O[C@]3(C)[C@H](O)C[C@@H]2C[C@@]12OC(=O)C=C2C`, which IC50 (SF-268) is on record?
Answer: Its IC50 is 0.5 µM.

Question: And the IC50 (MCF7 [5])?
Answer: Its IC50 is 0.5 µM.

Question: What about the IC50 (HepG2) of the same molecule?
Answer: Its IC50 is 0.5 µM.

Question: And the IC50 (A549)?
Answer: The IC50 was 0.5 µM.

Question: With `CC(C)=CCc1ccc2c3c([nH]c2c1)[C@@]1(C)[C@@H](CC[C@@]2(O)[C@@]45O[C@@H]4[C@H](O)[C@@H](C(C)(C)O)O[C@H]5CC[C@@]21C)C3` as the molecule, how does the MIC (Sclerotinia sclerotiorum) read?
Answer: The MIC was 25 µg/mL (≈ 47.9 µM).

Question: What about the MIC (Bipolaris maydis) of the same molecule?
Answer: The MIC was 25 µg/mL (≈ 47.9 µM).

Question: And the MIC (Verticillium dahliae)?
Answer: Its MIC is 25 µg/mL (≈ 47.9 µM).

Question: What about the MIC (Phytophthora nicotianae) of the same molecule?
Answer: The MIC was 25 µg/mL (≈ 47.9 µM).

Question: And the MIC (Fusarium graminearum [6])?
Answer: Its MIC is 25 µg/mL (≈ 47.9 µM).

Question: What about the MIC (Botrytis cinerea) of the same molecule?
Answer: Its MIC is 25 µg/mL (≈ 47.9 µM).

Question: And the MIC (Colletotrichum acutatum)?
Answer: Its MIC is 25 µg/mL (≈ 47.9 µM).

Question: With `CC1=C(O)C(=O)[C@@]23[C@H](C)CC[C@@H]2[C@H](C)CO[C@]32Oc3cc(O)cc(CO)c3C=C12` as the molecule, how does the IC50 (Hepatitis C virus) read?
Answer: The IC50 was 9.5 µM.

Question: With `C[C@]1(O)C=Cc2cc(C(=O)O)ccc2OC1` as the molecule, how does the IC50 (SW480) read?
Answer: The IC50 was 16.3 µM.

Question: And the IC50 (HeLa [7])?
Answer: Its IC50 is 38.6 µM.

Question: With `Cc1oc(=O)c2c(c1C)O[C@]1(C)[C@H](O)[C@@H]3O[C@](O)(CC[C@H](C)[C@H]1C2)C(C)(C)C3=O` as the molecule, how does the MIC (Fusarium graminearum [8]) read?
Answer: The MIC was 12.5 µg/mL.

Question: And the MIC (Salmonella typhi)?
Answer: Its MIC is 12.5 µg/mL.

Question: What does the source list for `Cc1cc2c(c(=O)o1)C[C@H]1[C@]3(C)CC[C@H]4C(C)(C)[C@@H](O)CC[C@]4(C)[C@H]3CC[C@]1(C)O2`?
Answer: IC50 (KB): 2.9 µg/mL (≈ 6.99 µM); IC50 (BC1 cell line): 8.7 µg/mL (≈ 21 µM); IC50 (NCI-H187): 9.8 µg/mL (≈ 23.6 µM)

Question: For `CC(C)(O)[C@@H]1C[C@@H](O)[C@]2(C(=O)O)[C@H](CC[C@@]3(C)[C@H]2CC[C@H]2Cc4c([nH]c5ccccc45)[C@@]23C)O1`, which MIC (Candida albicans) is on record?
Answer: The MIC was 12.5 µg/mL (≈ 26.7 µM).
